Laboratory results: ChEMBL document CHEMBL4177708, “N-Arylsulfonylsubstituted-1H indole derivatives as small molecule dual inhibitors of signal transducer and activator of transcription 3 (STAT3) and tubulin” (Bioorg Med Chem, 2018)
Activity calls are given as the source filed them. The calls are words filed in the database; no cut-off is given here.

Legend:
[1] = target: Signal transducer and activator of transcription 3 (Homo sapiens) (UniProt P40763); experiment: Inhibition of STAT3 phosphorylation at Tyr-705 residue in human MDA-MB-231 cells at 8 to 10 uM after 12 hrs by Western blot analysis; format: cell-based
Signal transducer and activator of transcription 3 (Homo sapiens), sequence (P40763 whole entry): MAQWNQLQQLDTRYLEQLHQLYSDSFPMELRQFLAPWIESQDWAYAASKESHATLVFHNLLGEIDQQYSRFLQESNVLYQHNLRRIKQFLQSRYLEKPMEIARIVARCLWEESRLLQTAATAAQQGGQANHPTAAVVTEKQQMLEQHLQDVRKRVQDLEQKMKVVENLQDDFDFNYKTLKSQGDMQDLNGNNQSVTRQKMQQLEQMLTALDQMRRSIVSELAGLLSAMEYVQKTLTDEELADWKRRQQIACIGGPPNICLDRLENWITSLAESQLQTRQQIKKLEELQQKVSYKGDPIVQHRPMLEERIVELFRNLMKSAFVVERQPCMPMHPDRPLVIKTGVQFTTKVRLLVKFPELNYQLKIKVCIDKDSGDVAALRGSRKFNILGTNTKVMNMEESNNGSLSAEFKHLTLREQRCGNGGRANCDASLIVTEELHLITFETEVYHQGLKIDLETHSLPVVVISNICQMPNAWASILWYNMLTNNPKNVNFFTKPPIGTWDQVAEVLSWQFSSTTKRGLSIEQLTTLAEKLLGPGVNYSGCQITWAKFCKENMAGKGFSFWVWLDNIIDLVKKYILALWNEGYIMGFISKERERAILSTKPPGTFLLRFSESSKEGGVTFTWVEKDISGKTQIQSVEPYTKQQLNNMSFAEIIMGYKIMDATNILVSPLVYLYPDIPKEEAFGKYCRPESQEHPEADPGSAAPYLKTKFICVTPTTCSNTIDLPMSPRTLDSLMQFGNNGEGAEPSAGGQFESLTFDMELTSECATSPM

[2] = target: Signal transducer and activator of transcription 3 (Homo sapiens) (UniProt P40763); experiment: Inhibition of STAT3 phosphorylation at Tyr-705 residue in human MDA-MB-231 cells after 12 hrs by Western blot analysis; format: cell-based
[3] = target: Signal transducer and activator of transcription 3 (Homo sapiens) (UniProt P40763); experiment: Inhibition of IL-6-stimulated STAT3 phosphorylation at Tyr-705 residue in human MDA-MB-231 cells at 1 to 4 uM preincubated for 2 hrs followed by IL-6 stimulation measured after 30 mins by Western blot analysis; format: cell-based
[4] = Solubility of the compound in 0.1% DMSO; format: physicochemical
[5] = tested on: A549; experiment: Inhibition of beta-tubulin polymerization in human A549 cells at 1 uM after 12 to 24 hrs by DAPI staining based confocal microscopic method; format: cell-based
[6] = tested on: A549; experiment: […] of beta-tubulin polymerization in human A549 cells at 1 uM after 12 to 24 hrs by DAPI staining based confocal microscopic method; format: cell-based

O=C(C1=Cc2cc(Br)ccc2S1(=O)=O)N1CCCCC1
inhibition [1]: Active

COc1ccc(S(=O)(=O)n2ccc3cccc(Nc4ccc(C#N)c(F)c4)c32)cc1
inhibition [2]: Dose-dependent effect

COc1ccc(S(=O)(=O)n2ccc3cccc(-c4ccc(C#N)c(F)c4)c32)cc1
inhibition [3]: Active
inhibition [2]: Dose-dependent effect

COc1ccc(S(=O)(=O)n2cc(Cl)c3cccc(-c4ccc(Cl)cc4)c32)cc1
solubility [4]: Insoluble

COc1cc2c(c(OC)c1OC)-c1ccc(OC)c(=O)cc1[C@@H](NC(C)=O)CC2
inhibition [5]: Active

COc1ccc(S(=O)(=O)n2ccc3cccc(-c4ccc(S(C)(=O)=O)cc4)c32)cc1
inhibition [2]: Dose-dependent effect

CC(=O)O[C@H]1C(=O)[C@@]2(C)[C@H]([C@H](OC(=O)c3ccccc3)[C@]3(O)C[C@H](OC(=O)[C@H](O)[C@@H](NC(=O)c4ccccc4)c4ccccc4)C(C)=C1C3(C)C)[C@]1(OC(C)=O)CO[C@@H]1C[C@@H]2O
Activity [6]: Active
